Experiments:
[1] = test system: TGFβ/SMAD Signaling Pathway SBE reporter cell line; test: TGFβ reporter assay, in vitro small molecule screening (luciferase); format: cell-based; details: TGFβ stimulation, luminescence
Procedure, shortened: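 SBE luciferase reporter cells (~0.5×10^6 cells/mL) preincubated with compound 5-6 h at 37 °C in 0.5% FBS MEM, then stimulated with TGFβ (12 ng/mL stock) for 18 h. Luminescence read after luciferase substrate; EC50 from curve fits.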

[2] = molecular target: T1, TGFBR2 (Homo sapiens, UniProt P37173); test: TGFBR2 RBC assay (enzyme inhibition assay, Reaction Biology Corp.); format: biochemical
T1 construct: purchased Reaction Biology Corp
T1 sequence (P37173 23-567): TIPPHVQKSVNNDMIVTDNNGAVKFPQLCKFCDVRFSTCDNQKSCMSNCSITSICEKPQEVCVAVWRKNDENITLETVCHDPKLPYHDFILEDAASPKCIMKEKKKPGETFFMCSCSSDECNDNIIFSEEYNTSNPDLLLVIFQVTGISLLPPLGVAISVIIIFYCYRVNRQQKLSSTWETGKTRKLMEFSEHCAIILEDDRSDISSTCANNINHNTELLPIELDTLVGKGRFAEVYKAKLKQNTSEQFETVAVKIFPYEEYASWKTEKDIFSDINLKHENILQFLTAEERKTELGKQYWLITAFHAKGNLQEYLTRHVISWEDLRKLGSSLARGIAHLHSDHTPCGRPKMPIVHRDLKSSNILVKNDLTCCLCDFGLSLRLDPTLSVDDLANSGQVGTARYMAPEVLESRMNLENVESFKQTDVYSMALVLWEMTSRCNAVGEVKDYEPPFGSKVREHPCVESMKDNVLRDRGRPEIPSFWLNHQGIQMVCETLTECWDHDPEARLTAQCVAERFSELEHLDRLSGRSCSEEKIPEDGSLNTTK
Procedure: Compounds of the disclosure were also assayed by Reaction Biology Corp. using the TGFBR2 RBC assay (enzyme inhibition assay). […] NT refers to not tested.

Row | SMILES | EC50 [1] | IC50 [2]
1 | COC(=O)[C@@H](N)Cc1ccc(-c2cnc(N)c(C(=O)Nc3cnccc3N3CCOCC3)n2)cc1 [Compound 203] | > 1000 nM | < 50 nM
2 | CC(COc1ccc(-c2cnc(N)c(C(=O)Nc3cnccc3N3CCOCC3)n2)cc1)NC(=O)OC(C)(C)C (stereo not drawn) [Compound 204] | > 1000 nM | < 50 nM
3 | CC(N)COc1ccc(-c2cnc(N)c(C(=O)Nc3cnccc3N3CCOCC3)n2)cc1 (stereo not drawn) [Compound 205] | 100 to 1000 nM | < 50 nM
4 | CC(CNC(=O)OC(C)(C)C)Oc1ccc(-c2cnc(N)c(C(=O)Nc3cnccc3N3CCOCC3)n2)cc1 (stereo not drawn) [Compound 206] | 100 to 1000 nM | < 50 nM
5 | CC(C)(C)OC(=O)N[C@@H](Cc1ccc(-c2cnc(N)c(C(=O)Nc3cnccc3N3CCOCC3)n2)cc1)C(=O)O [Compound 207] | 100 to 1000 nM | < 50 nM
6 | Nc1ncc(-c2ccc(C[C@H](N)C(=O)O)cc2)nc1C(=O)Nc1cnccc1N1CCOCC1 [Compound 208] | > 1000 nM | < 50 nM
7 | CC(C)(C)OC(=O)N[C@H](CO)Cc1ccc(-c2cnc(N)c(C(=O)Nc3cnccc3N3CCOCC3)n2)cc1 [Compound 209] | 100 to 1000 nM | < 50 nM
8 | Nc1ncc(-c2ccc(C[C@H](N)CO)cc2)nc1C(=O)Nc1cnccc1N1CCOCC1 [Compound 210] | 100 to 1000 nM | < 50 nM
9 | CC(C)(C)OC(=O)NC1Cc2ccc(-c3cnc(N)c(C(=O)Nc4cnccc4N4CCOCC4)n3)cc2C1 (stereo not drawn) [Compound 212] | 100 to 1000 nM | < 50 nM
10 | Nc1ncc(-c2ccc3c(c2)CC(N)C3)nc1C(=O)Nc1cnccc1N1CCOCC1 (stereo not drawn) [Compound 213] | 50 to 100 nM | < 50 nM
11 | CC1(C)CCNc2ccc(-c3cnc(N)c(C(=O)Nc4cnccc4N4CCOCC4)n3)cc21 [Compound 214] | 100 to 1000 nM | < 50 nM
12 | CC(C)(C)OC(=O)NC1CCc2cc(-c3cnc(N)c(C(=O)Nc4cnccc4N4CCOCC4)n3)ccc21 (stereo not drawn) [Compound 215] | 100 to 1000 nM | < 50 nM
13 | CC1CCNc2ccc(-c3cnc(N)c(C(=O)Nc4cnccc4N4CCOCC4)n3)cc21 (stereo not drawn) [Compound 216] | 50 to 100 nM | < 50 nM
14 | Nc1ncc(-c2ccc3c(c2)OCCN3)nc1C(=O)Nc1cnccc1N1CCOCC1 [Compound 217] | 100 to 1000 nM | < 50 nM
15 | CC(C)(C)OC(=O)N1CC(Oc2ccc(-c3cnc(N)c(C(=O)Nc4cnccc4N4CCOCC4)n3)cc2)C1 [Compound 218] | 50 to 100 nM | < 50 nM
16 | Nc1ncc(-c2ccc(OC3CNC3)cc2)nc1C(=O)Nc1cnccc1N1CCOCC1 [Compound 219] | 50 to 100 nM | < 50 nM
17 | Nc1ncc(-c2ccc3c(c2)CCC3N)nc1C(=O)Nc1cnccc1N1CCOCC1 (stereo not drawn) [Compound 220] | 100 to 1000 nM | < 50 nM
18 | CC(C)(C)OC(=O)N[C@H]1C[C@H](Oc2ccc(-c3cnc(N)c(C(=O)Nc4cnccc4N4CCOCC4)n3)cc2)C1 [Compound 221] | < 50 nM | < 50 nM
19 | Nc1ncc(-c2ccc(O[C@H]3C[C@H](N)C3)cc2)nc1C(=O)Nc1cnccc1N1CCOCC1 [Compound 222] | 100 to 1000 nM | < 50 nM
20 | CC(C)(C)OC(=O)N[C@H]1C[C@@H](Oc2ccc(-c3cnc(N)c(C(=O)Nc4cnccc4N4CCOCC4)n3)cc2)C1 [Compound 223] | 100 to 1000 nM | < 50 nM

Row | SMILES | EC50 [1] | IC50 [2]
21 | Nc1ncc(-c2ccc(O[C@H]3C[C@@H](N)C3)cc2)nc1C(=O)Nc1cnccc1N1CCOCC1 [Compound 224] | > 1000 nM | < 50 nM
22 | CC1c2ccc(-c3cnc(N)c(C(=O)Nc4cnccc4N4CCOCC4)n3)cc2CCN1C(=O)OC(C)(C)C (stereo not drawn) [Compound 225] | 100 to 1000 nM | 100 to 1000 nM
23 | CCOC(=O)[C@@H]1CN(Cc2ccccc2)C[C@H]1c1ccc(-c2cnc(N)c(C(=O)Nc3cnccc3N3CCOCC3)n2)cc1 [Compound 226] | 100 to 1000 nM | < 50 nM
24 | CCOC(=O)[C@@H]1CNC[C@H]1c1ccc(-c2cnc(N)c(C(=O)Nc3cnccc3N3CCOCC3)n2)cc1 [Compound 227] | 50 to 100 nM | < 50 nM
25 | CC(C)(C)OC(=O)N1CCCc2cc(-c3cnc(N)c(C(=O)Nc4cnccc4N4CCOCC4)n3)ccc2C1 [Compound 228] | 100 to 1000 nM | 50 to 100 nM
26 | Nc1ncc(-c2ccc3c(c2)CCCNC3)nc1C(=O)Nc1cnccc1N1CCOCC1 [Compound 229] | 100 to 1000 nM | 50 to 100 nM
27 | CC(C)(C)OC(=O)N1CCc2cc(-c3cnc(N)c(C(=O)Nc4cnccc4N4CCOCC4)n3)ccc2C1CN (stereo not drawn) [Compound 230] | 50 to 100 nM | < 50 nM
28 | Nc1ncc(-c2ccc3c(c2)CCNC3CN2C(=O)c3ccccc3C2=O)nc1C(=O)Nc1cnccc1N1CCOCC1 (stereo not drawn) [Compound 232] | > 1000 nM | < 50 nM
29 | CC(C)(C)OC(=O)NCC1CCc2cc(-c3cnc(N)c(C(=O)Nc4cnccc4N4CCOCC4)n3)ccc2O1 (stereo not drawn) [Compound 233] | 100 to 1000 nM | < 50 nM
30 | CC1NCCc2cc(-c3cnc(N)c(C(=O)Nc4cnccc4N4CCOCC4)n3)ccc21 (stereo not drawn) [Compound 234] | 100 to 1000 nM | < 50 nM
31 | NCC1NCCc2cc(-c3cnc(N)c(C(=O)Nc4cnccc4N4CCOCC4)n3)ccc21 (stereo not drawn) [Compound 235] | 100 to 1000 nM | < 50 nM
32 | Nc1ncc(-c2ccc(CCNC(=O)OCc3ccccc3)cc2)nc1C(=O)Nc1cnc(F)cc1N1CCOCC1 [Compound 236] | > 1000 nM | < 50 nM
33 | NCC1CCc2cc(-c3cnc(N)c(C(=O)Nc4cnccc4N4CCOCC4)n3)ccc2O1 (stereo not drawn) [Compound 237] | 50 to 100 nM | < 50 nM
34 | CC(C)(C)OC(=O)NC1CNc2ccc(-c3cnc(N)c(C(=O)Nc4cnccc4N4CCOCC4)n3)cc2C1 (stereo not drawn) [Compound 238] | 100 to 1000 nM | 50 to 100 nM
35 | Nc1ncc(-c2ccc3c(c2)CC(N)CN3)nc1C(=O)Nc1cnccc1N1CCOCC1 (stereo not drawn) [Compound 239] | 100 to 1000 nM | 50 to 100 nM
36 | COC(=O)c1cc(-c2cnc(N)c(C(=O)Nc3cnccc3N3CCOCC3)n2)ccc1OCCCN1C(=O)c2ccccc2C1=O [Compound 240] | > 1000 nM | 50 to 100 nM
37 | COC(=O)c1cc(-c2cnc(N)c(C(=O)Nc3cnccc3N3CCOCC3)n2)ccc1OCCCNC(=O)OC(C)(C)C [Compound 241] | > 1000 nM | 100 to 1000 nM
38 | COC(=O)c1cc(-c2cnc(NC(=O)OC(C)(C)C)c(C(=O)Nc3cnccc3N3CCOCC3)n2)ccc1OCCCNC(=O)OC(C)(C)C [Compound 242] | > 1000 nM | 50 to 100 nM
39 | CC(C)(C)OC(=O)NCC1CCc2cc(-c3cnc(N)c(C(=O)Nc4cnccc4N4CCOCC4)n3)ccc2N1 (stereo not drawn) [Compound 243] | 100 to 1000 nM | 100 to 1000 nM
40 | NCC1CCc2cc(-c3cnc(N)c(C(=O)Nc4cnccc4N4CCOCC4)n3)ccc2N1 (stereo not drawn) [Compound 244] | 100 to 1000 nM | < 50 nM

Row | SMILES | EC50 [1] | IC50 [2]
41 | Nc1ncc(-c2ccc3c(c2)CCCC3O)nc1C(=O)Nc1cnccc1N1CCOCC1 (stereo not drawn) [Compound 245] | 100 to 1000 nM | < 50 nM
42 | Nc1ncc(-c2ccc3c(c2)CC(O)CC3)nc1C(=O)Nc1cnccc1N1CCOCC1 (stereo not drawn) [Compound 246] | 100 to 1000 nM | < 50 nM
43 | Nc1ncc(-c2ccc3c(c2)CCC3O)nc1C(=O)Nc1cnccc1N1CCOCC1 (stereo not drawn) [Compound 247] | 50 to 100 nM | < 50 nM
44 | Nc1ncc(-c2ccc3c(c2)CC(O)C3)nc1C(=O)Nc1cnccc1N1CCOCC1 (stereo not drawn) [Compound 248] | 100 to 1000 nM | < 50 nM
45 | Nc1ncc(-c2ccc3c(c2)CCC(O)C3)nc1C(=O)Nc1cnccc1N1CCOCC1 (stereo not drawn) [Compound 249] | 100 to 1000 nM | < 50 nM
46 | Nc1ncc(-c2ccc3c(c2)C(O)CCC3)nc1C(=O)Nc1cnccc1N1CCOCC1 (stereo not drawn) [Compound 251] | 100 to 1000 nM | < 50 nM
47 | Nc1ncc(-c2ccc3ccccc3c2)nc1C(=O)Nc1cnccc1N1CCOCC1 [Compound 252] | 100 to 1000 nM | < 50 nM
48 | Nc1ncc(-c2cccc3ccccc23)nc1C(=O)Nc1cnccc1N1CCOCC1 [Compound 253] | > 1000 nM | 100 to 1000 nM
49 | CNc1ncc(-c2ccc(OC(C)CN)cc2)nc1C(=O)Nc1cnccc1N1CCOCC1 (stereo not drawn) [Compound 254] | > 1000 nM | > 1000 nM
50 | CC(CN)Oc1ccc(-c2cnc(N)c(C(=O)Nc3cnccc3N3CCCOCC3)n2)cc1 (stereo not drawn) [Compound 256] | 100 to 1000 nM | 50 to 100 nM
51 | CC(CN)Oc1ccc(-c2cnc(N)c(C(=O)Nc3cnccc3N3CCCCOCC3)n2)cc1 (stereo not drawn) [Compound 257] | > 1000 nM | < 50 nM
52 | Nc1ncc(-c2ccc(N3CCOCC3)cc2)nc1C(=O)Nc1cnccc1N1CCOCC1 [Compound 258] | < 50 nM | < 50 nM
53 | CN(C)c1ccc(-c2cnc(N)c(C(=O)Nc3cnccc3N3CCOCC3)n2)cc1 [Compound 259] | < 50 nM | < 50 nM
54 | CNc1ccc(-c2cnc(N)c(C(=O)Nc3cnccc3N3CCOCC3)n2)cc1 [Compound 260] | < 50 nM | < 50 nM
55 | CC(CN)Oc1ccc(-c2cnc(N)c(C(=O)Nc3cnccc3N3CCCOCCC3)n2)cc1 (stereo not drawn) [Compound 261] | > 1000 nM | > 1000 nM
56 | Nc1ncc(-c2ccc(N3CCCC3)cc2)nc1C(=O)Nc1cnccc1N1CCOCC1 [Compound 262] | 100 to 1000 nM | < 50 nM
57 | COC(=O)[C@@H](N)CCOc1ccc(-c2cnc(N)c(C(=O)Nc3cnccc3N3CCOCC3)n2)cc1 [Compound 263] | 100 to 1000 nM | < 50 nM
58 | COC(=O)[C@H](CCOc1ccc(-c2cnc(N)c(C(=O)Nc3cnccc3N3CCOCC3)n2)cc1)NC(=O)OCc1ccccc1 [Compound 264] | > 1000 nM | < 50 nM
59 | Nc1ncc(-c2ccc(OCC[C@H](NC(=O)OCc3ccccc3)C(=O)O)cc2)nc1C(=O)Nc1cnccc1N1CCOCC1 [Compound 265] | > 1000 nM | < 50 nM
60 | CC(C)(C)OC(=O)NCCNc1ccc(-c2cnc(N)c(C(=O)Nc3cnccc3N3CCOCC3)n2)cc1 [Compound 266] | 100 to 1000 nM | < 50 nM

Reference: patent US20220362396A1, “AMINO-PYRAZINECARBOXAMIDE COMPOUNDS, CONJUGATES, AND USES THEREOF” (Silverback Therapeutics, Inc., priority 2018, published 2022)
